Data from patent publication US20230413824A1, “AGROCHEMICAL COMPOSITION COMPRISING 3-SUBSTITUTED PHENYLAMIDINE COMPOUNDS AND USE THEREOF” (PI INDUSTRIES LIMITED, priority 2020, published 2023).
Read-outs that look alike come from different tables or passages of the source.

Key:
Format in all cases: in vivo
[1] = tested on: Alternaria solani; assay: Alternaria solani test in tomato (preventive, glasshouse)
[2] = tested on: Phakopsora pachyrhizi; assay: Phakopsora pachyrhizi test in soybean (preventive, glasshouse); conditions: single compound
[3] = tested on: Botrytis cinerea; assay: Botrytis cinerea test in tomato (preventive, glasshouse); conditions: single compound; for pest or weed control at 0.05 ppm: Conc. 0.05 ppm
[4] = tested on: Erysiphe cichoracearum; assay: Erysiphe cichoracearum test in cucumber (preventive, glasshouse); conditions: single compound
[5] = tested on: Pyricularia oryzae; assay: whole plant or invertebrate; conditions: for Observed Efficacy: single compound, preventive spray, rice
[6] = tested on: Septoria nodorum; assay: Parastagonospora nodorum/Septoria nodorum/Stagnospora nodorum test in wheat (preventive, glasshouse); conditions: single compound
Procedure: The single compounds or compound combinations were dissolved in 2% DMSO/Acetone and then mixed with water containing emulsifier to a calibrated spray volume of 50 mL. The spray solutions were poured into spray bottles for further applications.
To test the preventive activity of compounds, healthy young wheat plants, raised in the greenhouse, were sprayed with the single compound or mixture preparation at the stated application rates inside the spray cabinets using hollow cone nozzles. One day after treatment, the plants were inoculated with a suspension containing 2.8×10^6 Stagnospora nodorum inoculum. The inoculated plants were then kept in a greenhouse chamber at 22-25° C. temperature and 90-100% relative humidity for disease expression.
A visual assessment of the performance of the compounds and respective compound combinations was carried out by rating the disease severity (0-100% scale) on treated plants 3, 7 and 10 days after application. Efficacy (% control) of the compounds was calculated by comparing the disease rating in the treatment with the one of the untreated control. The compounds were also assessed for their plant compatibility by recording symptoms like necrosis, chlorosis & stunting. The results are shown for the compound of formula (I-1) to (I-5) in Table E1-E5.

[7] = Pyricularia oryzae, read-out: Observed Efficacy
[8] = Alternaria solani, single compound, 0.05 ppm, preventive spray, read-out: Observed Efficacy (%)
[9] = Alternaria solani, single compound, 0.1 ppm, preventive spray, read-out: Observed Efficacy (%)
[10] = Table B4, single compound, Conc. 0.05 ppm, preventive
[11] = Table B4, single compound, Conc. 0.1 ppm, preventive
[12] = single compound, 0.05 ppm, preventive
[13] = single compound, 0.1 ppm, preventive
[14] = Phakopsora pachyrhizi, 0.05 ppm, preventive spray on soybean, read-out: Observed Efficacy (%)
[15] = Phakopsora pachyrhizi, 0.1 ppm, preventive spray on soybean, read-out: Observed Efficacy (%)
[16] = Conc. 0.05 ppm, soybean, preventive, Table D4
[17] = Conc. 0.05 ppm, soybean, preventive, Table D5
[18] = Conc. 0.1 ppm, soybean, preventive, Table D4
[19] = Conc. 0.1 ppm, soybean, preventive, Table D5
[20] = Botrytis cinerea, preventive spray on tomato, % control vs untreated, read-out: Observed Efficacy (%)
[21] = Botrytis cinerea, Conc. 0.1 ppm, preventive spray on tomato, % control vs untreated, read-out: Observed Efficacy (%)
[22] = Golovinomyces cichoracearum, 0.05 ppm, cucumber, preventive, read-out: Observed Efficacy (%)
[23] = Golovinomyces cichoracearum, 0.1 ppm, cucumber, preventive, read-out: Observed Efficacy (%)
[24] = 0.05 ppm, preventive spray on cucumber
[25] = 0.1 ppm, preventive spray on cucumber
[26] = Parastagonospora nodorum, 0.05 ppm, read-out: Observed Efficacy (%)
[27] = Parastagonospora nodorum, 0.1 ppm, read-out: Observed Efficacy (%)
[28] = Alternaria solani, single compound, Conc. 0.05 ppm, preventive spray, read-out: Observed Efficacy
[29] = Alternaria solani, single compound, Conc. 0.1 ppm, preventive spray, read-out: Observed Efficacy
[30] = Table B3, single compound, Conc. 0.05 ppm, preventive
[31] = Table B3, single compound, Conc. 0.1 ppm, preventive

| Structure (SMILES) | pest or weed control at 0.05 ppm [1, 8] [%] | pest or weed control at 0.1 ppm [1, 9] [%] | Observed Efficacy (%) [1, 10] [%] | Observed Efficacy (%) [1, 11] [%] | Observed Efficacy (%) [1, 12] [%] | Observed Efficacy (%) [1, 13] [%] | pest or weed control at 0.05 ppm [2, 14] [%] | Observed Efficacy (%) [2, 16] [%] | Observed Efficacy (%) [2, 17] [%] | Observed Efficacy (%) [2, 18] [%] | Observed Efficacy (%) [2, 19] [%] | pest or weed control at 0.05 ppm [4, 22] [%] | pest or weed control at 0.1 ppm [4, 23] [%] | Observed Efficacy (%) [4, 24] [%] | Observed Efficacy (%) [4, 25] [%] | pest or weed control at 0.05 ppm [5, 7] [%] | pest or weed control at 0.1 ppm [5, 7] [%] | pest or weed control at 0.05 ppm [6, 26] [%] | pest or weed control at 0.1 ppm [6, 27] [%] | Observed Efficacy (%) [1, 31] [%] | also measured |
| --- | --- | --- | --- | --- | --- | --- | --- | --- | --- | --- | --- | --- | --- | --- | --- | --- | --- | --- | --- | --- | --- |
| CCN(C)C=Nc1cc(F)cc(Cc2cccc(C)c2)c1C [Compound (I-5), N-ethyl-N′-(5-fluoro-2-methyl-3-(3-methylbenzyl)phenyl)-N-methylformimidamide] | – | – | – | – | – | – | – | – | – | – | – | – | – | – | – | – | – | – | – | – | pest or weed control at 1 ppm ([1]; Alternaria solani, single compound, 1 ppm, preventive, read-out: Observed Efficacy (%)): 13%; pest or weed control at 5 ppm ([1]; Alternaria solani, single compound, 5 ppm, preventive, read-out: Observed Efficacy (%)): 17%; pest or weed control at 20 ppm ([1]; Alternaria solani, single compound, 20 ppm, preventive, read-out: Observed Efficacy (%)): 27%; pest or weed control at 0.0001 ppm ([2]; Phakopsora pachyrhizi, Conc. 0.0001 ppm, soybean, preventive, Table D5, read-out: Observed Efficacy (%)): 37%; pest or weed control at 0.001 ppm ([2]; Phakopsora pachyrhizi, Conc. 0.001 ppm, soybean, preventive, Table D5, read-out: Observed Efficacy (%)): 50%; pest or weed control at 0.01 ppm ([2]; Phakopsora pachyrhizi, Conc. 0.01 ppm, soybean, preventive, Table D5, read-out: Observed Efficacy (%)): 61%; pest or weed control at 1 ppm ([3]; Table F5, Conc. 1 ppm, Botrytis cinerea in tomato, preventive, read-out: Observed Efficacy (%)): 53%; pest or weed control at 5 ppm ([3]; Table F5, Conc. 5 ppm, Botrytis cinerea in tomato, preventive, read-out: Observed Efficacy (%)): 63%; pest or weed control at 20 ppm ([3]; Table F5, Conc. 20 ppm, Botrytis cinerea in tomato, preventive, read-out: Observed Efficacy (%)): 73%; pest or weed control at 1 ppm ([4]; Golovinomyces cichoracearum, 1 ppm, preventive spray on cucumber, read-out: Observed Efficacy (%)): 23%; pest or weed control at 5 ppm ([4]; Golovinomyces cichoracearum, 5 ppm, preventive spray on cucumber, read-out: Observed Efficacy (%)): 47%; pest or weed control at 20 ppm ([4]; Golovinomyces cichoracearum, 20 ppm, preventive spray on cucumber, read-out: Observed Efficacy (%)): 77%; pest or weed control at 1 ppm [5, 7]: 23%; pest or weed control at 5 ppm [5, 7]: 37%; pest or weed control at 20 ppm [5, 7]: 47%; pest or weed control at 1 ppm ([6]; Parastagonospora nodorum, 1 ppm, read-out: Observed Efficacy (%)): 23%; pest or weed control at 5 ppm ([6]; Parastagonospora nodorum, 5 ppm, read-out: Observed Efficacy (%)): 33%; pest or weed control at 20 ppm ([6]; Parastagonospora nodorum, 20 ppm, read-out: Observed Efficacy (%)): 40% |
| N#Cc1sc2c(=O)c3ccccc3c(=O)c=2sc1C#N [Dithianon, dithianon] | 21 | 26 | 21 | 26 | 21 | 26 | 15 | 15 | 15 | 24 | 24 | 11 | 18 | 11 | 18 | 34 | 42 | 11 | 16 | – | pest or weed control at 0.1 ppm [2, 15]: 24%; pest or weed control at 0.05 ppm [3, 20]: 38%; pest or weed control at 0.1 ppm [3, 21]: 45% |
| O=C1c2ccccc2C(=O)N1SC(Cl)(Cl)Cl [Folpet, folpet] | 12 | 16 | – | 16 | 12 | 16 | 5 | 5 | 5 | 12 | 12 | 24 | 32 | 24 | 32 | 34 | 39 | 16 | 21 | 16 | pest or weed control at 0.05 ppm [1, 28]: 12%; pest or weed control at 0.1 ppm [1, 29]: 16%; Observed Efficacy (%) [1, 30]: 12%; pest or weed control at 0.1 ppm [2, 15]: 12%; pest or weed control at 0.05 ppm [3, 20]: 24%; pest or weed control at 0.1 ppm [3, 21]: 38% |
| CNC(=O)/C(=N/OC)c1ccccc1Oc1ccccc1 [Metominostrobin, metominostrobin] | 26 | 31 | 26 | 31 | 26 | 31 | – | – | 45 | – | – | 14 | 57 | 14 | – | 17 | 33 | 6 | 12 | 31 | pest or weed control at 0.05 ppm [1, 28]: 26%; pest or weed control at 0.1 ppm [1, 29]: 31%; pest or weed control at 0.05 ppm ([2]; Phakopsora pachyrhizi, Conc. 0.05 ppm, soybean, preventive, Table D4, read-out: Observed Efficacy (%)): 45%; pest or weed control at 0.1 ppm ([2]; Phakopsora pachyrhizi, Conc. 0.1 ppm, soybean, preventive, Table D5, read-out: Observed Efficacy (%)): 56%; pest or weed control at 0.1 ppm ([3]; Table F5, Conc. 0.1 ppm, Botrytis cinerea in tomato, preventive, read-out: Observed Efficacy (%)): 40% |
| CO/C=C(/C(=O)OC)c1ccccc1COc1cccc(C(F)(F)F)n1 [Picoxystrobin, picoxystrobin] | – | – | – | – | 23 | 26 | – | 20 | 20 | 28 | 28 | – | – | 19 | 43 | – | – | – | – | 26 | Observed Efficacy (%) [1, 30]: 23%; Observed Efficacy (%) ([1]; single compound, 0.05 ppm, preventive spray): 23%; Observed Efficacy (%) ([1]; single compound, 0.1 ppm, preventive spray): 26%; Observed Efficacy (%) ([2]; 0.05 ppm, preventive spray on soybean): 20%; Observed Efficacy (%) ([2]; 0.1 ppm, preventive spray on soybean): 28%; Observed Efficacy (%) ([3]; Conc. 0.1 ppm, preventive spray on tomato, % control vs untreated): 38%; Observed Efficacy (%) ([4]; 0.05 ppm, cucumber, preventive): 19%; Observed Efficacy (%) ([4]; 0.1 ppm, cucumber, preventive): 43%; Observed Efficacy ([5]; Conc. 0.05 ppm): 16%; Observed Efficacy ([5]; Conc. 0.1 ppm): 33%; Observed Efficacy (%) ([6]; 0.05 ppm): 12%; Observed Efficacy (%) ([6]; 0.1 ppm): 26% |
